# Assay results reported in patent publication US8410056B2, “Pro-oxidant anti-cancer compounds” (priority 2006, dated 2013).
# How the values were obtained:
# [1] = target: T1, SDH/Complex II, Paracoccus denitrificans membranes (Paracoccus denitrificans, UniProt Q59659+Q59660+Q59662); experiment: SDH/Complex II activity, DCIP/PMS assay; format: biochemical; conditions: 100 or 300 μM α-TOS; compared to control
# T1 construct: Membranes were prepared from harvested cells by treating with lysozyme; endogenous in cells; host or cells: membrane vesicles of P. denitrificans CCM 982 (NCIB 8944), endogenous enzyme
# T1 sequence (Q59662 whole entry): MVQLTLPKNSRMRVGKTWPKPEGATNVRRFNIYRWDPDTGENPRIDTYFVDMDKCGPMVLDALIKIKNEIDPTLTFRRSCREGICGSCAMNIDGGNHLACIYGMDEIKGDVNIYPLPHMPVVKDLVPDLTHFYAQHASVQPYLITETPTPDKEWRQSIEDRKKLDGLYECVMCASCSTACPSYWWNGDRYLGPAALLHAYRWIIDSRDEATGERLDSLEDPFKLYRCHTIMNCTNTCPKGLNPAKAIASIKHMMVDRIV
# T1 sequence (Q59660 whole entry): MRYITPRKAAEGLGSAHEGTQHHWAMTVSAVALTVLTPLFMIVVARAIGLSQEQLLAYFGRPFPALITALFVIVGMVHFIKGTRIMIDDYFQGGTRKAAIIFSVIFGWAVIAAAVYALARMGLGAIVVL
# T1 sequence (Q59659 whole entry): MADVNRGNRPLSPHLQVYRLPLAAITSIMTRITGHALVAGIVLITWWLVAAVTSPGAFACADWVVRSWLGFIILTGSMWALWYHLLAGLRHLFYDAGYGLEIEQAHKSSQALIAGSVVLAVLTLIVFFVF
# T1 sequence (Q59661 whole entry, further chain): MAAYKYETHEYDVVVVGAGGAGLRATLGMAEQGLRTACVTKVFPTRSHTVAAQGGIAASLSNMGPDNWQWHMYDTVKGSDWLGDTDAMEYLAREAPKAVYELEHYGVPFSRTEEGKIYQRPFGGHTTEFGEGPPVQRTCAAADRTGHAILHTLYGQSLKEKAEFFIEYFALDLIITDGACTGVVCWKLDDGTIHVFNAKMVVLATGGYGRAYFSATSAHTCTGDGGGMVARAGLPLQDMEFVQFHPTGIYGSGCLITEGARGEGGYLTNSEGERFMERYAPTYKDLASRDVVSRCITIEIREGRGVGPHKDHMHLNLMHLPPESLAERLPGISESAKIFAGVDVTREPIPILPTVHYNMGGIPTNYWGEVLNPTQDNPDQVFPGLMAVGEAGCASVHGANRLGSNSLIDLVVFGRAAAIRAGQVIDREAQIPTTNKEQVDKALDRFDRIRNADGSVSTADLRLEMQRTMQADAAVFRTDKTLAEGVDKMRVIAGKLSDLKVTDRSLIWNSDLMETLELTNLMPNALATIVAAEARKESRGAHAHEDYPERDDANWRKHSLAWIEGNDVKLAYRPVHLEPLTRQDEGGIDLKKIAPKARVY
# Method: Preparation of membrane vesicles from Paracoccus denitrificans. P. denitrificans CCM 982 (NCIB 8944) was grown anaerobically at 30° C. in a medium containing 50 mM succinate as the carbon source and 10 mM nitrate as the terminal acceptor. Membranes were prepared from harvested cells by treating with lysozyme according to Burnell et al (1975). After dilution in 0.1 M Na phosphate, pH 7.3, to a final protein concentration of approximately 20 mg/ml, the membranes were stored at −20° C. in 1 ml aliquots until used. The protein concentration was determined using the bicinchoninic acid method and an iEMS plate reader (Labsystem, Finland).
# Measurement of mitochondrial complex II and complex I activity. A time course for the reduction of the complex II substrate 2,6-dichlorophenol indophenol (DCIP) by the mitochondrial preparations was followed by measuring the absorbance at 600 nm in 1 cm cuvettes containing a 1 ml reaction volume (ε600=21×10^3 M^−1cm^−1). The reaction components included NADH, 0.5 mM; succinate, 5 mM; KCN, 10 mM; DCIP, 50 μM; PMS, 50 μM. For each assay point, 0.5 mg sample protein was used and α-TOS was added at either 100 or 300 μM as indicated. The change in absorbance of DCIP was measured using a spectrophotometer (UVIKON XL, Secomam) and replicate samples were assayed (n=3). When measuring the complex I (NADH dehydrogenase activity), PMS was omitted. […]
# MDA-MB-453 cells = experiment: Apoptosis, annexin V-FITC method; format: cell-based, human
# Method: Cell culture and treatment. […] Cells were cultured in DMEM with 10% FCS, 100 U/ml penicillin and 100 μg/ml streptomycin at 37° C. in a humidified atmosphere of 5% CO2. Mitochondrial complex I-deficient (Breen and Scheffler 1979; DeFrancesco et al 1976; Scheffler et al 2004) and complex II-deficient cells (Albayrak et al 2003; Oostveen et al 1995) were grown in DMEM with 10% FCS, […] glucose and non-essential amino acids.
# At approximately 70% confluency, cells were treated with up to 50 μM α-TOS (Sigma), up to 100 μM 3-BP (Aldrich) or 30 ng/ml of human recombinant tumor necrosis factor-related apoptosis—inducing ligand (TRAIL) (Weber et al, 2002) under normoxic or hypoxic conditions. For hypoxia, cells overlaid with nitrogen-purged medium were placed in a hypoxic chamber pre-flushed extensively with nitrogen. The hypoxic chamber with cells was then placed in the incubator as required. α-TOS was dissolved in ethanol and used such that the final ethanol concentration in cell culture medium was <0.1% (v/v). Stock solutions of 3-BP were prepared in PBS prior to use.
# Apoptosis assessment. Apoptosis was quantified using the annexin V-FITC method, which detects phosphatidyl serine externalized in the early phases of apoptosis (Boersma et al, 1996). Briefly, cells were plated at 10^5 per well in 24-well plates and, after an overnight recuperation, treated with α-TOS or 3-BP alone or in combination. Floating and attached cells were harvested, washed with PBS, resuspended in 0.2 ml binding buffer (10 mM Hepes, 140 mM NaCl, 5 mM CaCl2, pH 7.4), incubated for 30 min at 4° C. with 2 μl annexin V-FITC (PharMingen), supplemented with 200 μl of 50 μg/ml propidium iodide (PI; Sigma), and analyzed by flow cytometry (FACScalibur, Becton Dickinson) using channel 1 for annexin V-FITC binding and channel 2 for PI staining. Cell death was quantified as the percentage of cells with increased annexin V binding and PI staining.
# RNA interference (RNAi). Short-interfering RNA (siRNA) oligonucleotides with 3′-dTdT overhangs specific for Akt1 were synthesized by Qiagen. The sequences are as follows: target sequence: […] (SEQ ID NO 2); siRNA duplex sequences: sense—r([…] )dTdT (SEQ ID NO 3), antisense—r([…] )dTdT (SEQ ID NO 4). The transfection of cultured MDA-MB-453 cells with siRNA was performed using OligofectAmine (Invitrogen) and OptiMEM according to the manufacturer's instructions. Briefly, cells were allowed to reach 50% confluency and supplemented with […] siRNA pre-incubated with OligofectAmine and overlayed with OptiMEM. Cells were washed 24 h later with PBS, overlayed with complete DMEM and treated as required after an additional 24 h.
# Transfection of MDA-MB-453 cells with siRNAs was performed using OligofectAmine and OptiMEM. Briefly, cells were allowed to reach ˜50% confluency and supplemented with 60 pmol/l siRNA pre-incubated with OligofectAmine and overlayed with OptiMEM. Cells were washed 24 h later with PBS, overlaid with complete DMEM, cultured for an additional 24 h, 48 h and transgene expression confirmed using Western blotting before they were used for further experiments.
compound,measurement,setting,value
"Cc1c(C)c2c(c(C)c1OC(=O)CCC(=O)O)CC[C@@](C)(CCC[C@H](C)CCC[C@H](C)CCCC(C)C)O2 [Compound 1, α-tocopheryl succinate]",rate of reduction of DCIP (SDH/Complex II activity),[1],decreased rapidly and significantly after treatment with α-TOS
same,apoptosis,"MDA-MB-453 cells; MDA-MB-453 (erbB2-high), normoxia or hypoxia",sensitive to apoptosis induced by α-TOS under both normoxia and hypoxia
same,apoptosis after Akt1 knock-down,"MDA-MB-453 cells; pre-treated with 60 pM Akt1 siRNA for 24 h, then drug 24 h",sensitizes
